Data from US20260226073A1 (AURIGENE ONCOLOGY LIMITED, priority 2023, published 2026).

Assays:
[1] = tested on: NFAT signaling pathway in Jurkat NFAT reporter cells; experiment: Jurkat NFAT reporter assay; assay type: cell-based; conditions: Homo sapiens, 30 min with compound, then soluble anti-human CD3/CD28 antibody for 6 hours, luciferase readout, read-out: EC50 (Group)
How it was run: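 Results are expressed as fold change relative to stimulated, inhibitor-free cells. Stimulation was 6 h with soluble anti-human CD3/CD28 antibody after a 30-min exposure of 1×10^5 NFAT-RE luciferase Jurkat reporter cells per well to the Cbl-b inhibitor; signal read by Bio-Glo bioluminescence.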

[2] = tested on: human PBMCs stimulated with anti-CD3/CD28 Dynabeads; experiment: Human PBMC cytokine release assay (IL-2 by ELISA); assay type: cell-based; conditions: Dynabeads CD3/CD28 48 hours, IL-2 ELISA, fold change over baseline, read-out: EC50 (human PBMC cytokine release, group)
Protocol: Peripheral blood mononuclear cells (PBMC) were isolated from healthy human donor using Histopaque (Sigma). The Cbl-inhibitor was added to 1×10^5 cells per well and the plate was incubated for 30 minutes at 37° C. in 5% CO2 at different concentrations with a final DMSO concentration of <0.5%. Following incubation with the Cbl-b inhibitor, human PBMCs were stimulated with Dynabeads™ Human T-Activator CD3/CD28 (Thermo Fisher Scientific) for 48 hours. Cell free supernatant were collected after end of incubation and were analyzed for cytokine secretion, including IL-2 by ELISA (R&D Systems). Readouts were reported as fold change over baseline. Here, baseline was the measurement obtained from human PBMCs stimulated with Dynabeads™ Human T-Activator CD3/CD28, where the cells were not incubated with a Cbl-b inhibitor.

[3] = target: T1, human recombinant CBL-b (human Biotin CBL-b recombinant protein a.a. 39-426) (Homo sapiens, UniProt Q13191); experiment: Biochemical assay for CBL-b inhibition (ligand displacement TR-FRET); assay type: binding; conditions: 50 nM CBL-b, 0.3 μM Bodipy FL-Probe, read-out: IC50 (CBL-b inhibition, group)
T1 construct: human Biotin CBL-b recombinant protein a.a; 39-426; Biotin (biotinylated); made in house
How it was run: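 Ligand-displacement TR-FRET: 0.3 μM Bodipy FL probe competes with compound for 50 nM biotin-CBL-b (aa 39-426) after a 60 min RT compound pre-incubation; terbium-streptavidin detection, 60 min each step. Dose-response sigmoidal fitting gave IC50 and % maximum inhibition.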

T1 sequence (Q13191 39-426): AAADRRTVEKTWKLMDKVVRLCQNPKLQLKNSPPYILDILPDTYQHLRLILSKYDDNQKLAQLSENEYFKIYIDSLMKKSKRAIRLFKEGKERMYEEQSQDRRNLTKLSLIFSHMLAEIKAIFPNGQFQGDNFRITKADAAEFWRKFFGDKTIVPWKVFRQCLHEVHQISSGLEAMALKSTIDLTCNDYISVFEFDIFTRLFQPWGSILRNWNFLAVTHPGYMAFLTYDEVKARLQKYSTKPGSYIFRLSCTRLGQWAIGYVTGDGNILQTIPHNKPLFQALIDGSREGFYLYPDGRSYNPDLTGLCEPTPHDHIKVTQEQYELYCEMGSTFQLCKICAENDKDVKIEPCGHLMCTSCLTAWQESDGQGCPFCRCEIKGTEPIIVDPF

| EC50 [1] | IC50 [3] | SMILES | EC50 [2] |
| --- | --- | --- | --- |
| 300 to 1000 nM | < 80 nM | Cc1cc(C(C)N2CCC[C@H](C)C2)cc(N2Cc3ccc(C4(Cc5nncn5C)COC4)cc3C2=O)c1 (stereo partly drawn) [Compound 12, 6-(3-((4-Methyl-4H-1,2,4-triazol-3-yl)methyl)oxetan-3-yl)-2-(3-methyl-5-(1-((S)-3-methylpiperidin-1-yl)ethyl)phenyl)isoindolin-1-one] | < 5000 nM |
| < 300 nM | < 80 nM | Cn1cnnc1CC1(c2ccc3c(c2)C(=O)N(c2cc(CNCC4CC4)cc(Cl)n2)C3)COC1 [Compound 57, 2-(6-Chloro-4-(((cyclopropylmethyl)amino)methyl)pyridin-2-yl)-6-(3-((4-methyl-4H-1,2,4-triazol-3-yl)methyl)oxetan-3-yl)isoindolin-1-one] | < 5000 nM |
| < 300 nM | 80 to 300 nM | Cc1cc(CN2C[C@H](C)C[C@H](C)C2)cc(N2Cc3ccc(C4(Cc5nncn5C)COC4)cc3C2=O)c1 [Compound 56, 2-(3-(((3S,5R)-3,5-Dimethylpiperidin-1-yl)methyl)-5-methylphenyl)-6-(3-((4-methyl-4H-1,2,4-triazol-3-yl)methyl)oxetan-3-yl)isoindolin-1-one] | < 5000 nM |
